In publication PMC11027065 (Analytical chemistry, 2020):

Molecular target: T1, insulin-regulated aminopeptidase (IRAP, EC 3.4.11.3) (Rattus norvegicus, UniProt P97629)
T1 sequence (P97629 1-1025): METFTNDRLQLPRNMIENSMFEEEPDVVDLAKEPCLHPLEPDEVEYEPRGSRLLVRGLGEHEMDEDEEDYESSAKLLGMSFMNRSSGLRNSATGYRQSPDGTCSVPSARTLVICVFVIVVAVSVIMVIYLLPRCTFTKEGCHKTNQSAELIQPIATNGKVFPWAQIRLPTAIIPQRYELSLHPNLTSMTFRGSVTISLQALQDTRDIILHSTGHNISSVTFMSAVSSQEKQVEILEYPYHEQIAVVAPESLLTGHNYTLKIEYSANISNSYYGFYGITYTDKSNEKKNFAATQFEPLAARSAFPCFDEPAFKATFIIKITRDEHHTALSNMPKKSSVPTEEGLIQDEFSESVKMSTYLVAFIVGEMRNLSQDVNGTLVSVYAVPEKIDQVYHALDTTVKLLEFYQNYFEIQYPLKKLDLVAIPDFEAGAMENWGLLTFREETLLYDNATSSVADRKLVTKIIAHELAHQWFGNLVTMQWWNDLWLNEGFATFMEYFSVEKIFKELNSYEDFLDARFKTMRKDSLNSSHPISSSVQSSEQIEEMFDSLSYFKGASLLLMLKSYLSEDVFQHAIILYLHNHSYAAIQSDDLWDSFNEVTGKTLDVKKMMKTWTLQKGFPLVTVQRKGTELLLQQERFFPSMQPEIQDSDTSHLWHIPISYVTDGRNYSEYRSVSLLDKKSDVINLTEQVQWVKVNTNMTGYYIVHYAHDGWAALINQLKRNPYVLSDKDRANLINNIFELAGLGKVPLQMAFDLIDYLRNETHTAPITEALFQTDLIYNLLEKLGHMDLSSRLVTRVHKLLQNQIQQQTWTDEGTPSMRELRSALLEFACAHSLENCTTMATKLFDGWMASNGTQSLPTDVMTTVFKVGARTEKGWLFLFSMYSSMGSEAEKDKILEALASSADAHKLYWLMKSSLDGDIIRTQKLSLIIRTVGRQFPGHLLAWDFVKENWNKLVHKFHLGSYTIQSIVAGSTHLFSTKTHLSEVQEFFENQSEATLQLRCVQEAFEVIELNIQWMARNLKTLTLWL
Assay: EOP-MD probe with cLC-MS2: effect of HFI-419 on LE hydrolysis in vivo
Conditions: 50 μM HFI-419; GGFL detected without inhibitor; data not shown

With `CCOC(=O)C1=C(NC(C)=O)Oc2cc(O)ccc2C1c1cccnc1` (stereo not shown) [HFI-419] the “product GGFL in dialysate during infusion of inhibitor” value was “undetected”.
